# Assay results taken from US7223788B2, “Substituted N-aryl heterocycles, process for their preparation and their use as medicaments” (Sanofi-Aventis Deutschland GmbH, priority 2003, dated 2007).
# Tested on: female NMRI mice
# Experiment: Anorectic effect: reduction in cumulative milk consumption after oral administration (gavage) to fasted mice
# Assay type: in vivo
# Settings: oral dose 30 mg/kg by gavage, after withdrawal of food for 17 hours, condensed milk consumption over 7 hours, compared with vehicle-treated control
# Protocol: The anorectic effect was tested on female NMRI mice. After withdrawal of food for 17 hours, the test product was administered by gavage. The animals were housed singly with free access to drinking water and were offered condensed milk 30 minutes after administration of the product. The condensed milk consumption was determined every half hour for 7 hours, and the general wellbeing of the animals was observed. The measured milk consumption was compared with the vehicle-treated control animals.
row,Compound,Reduction in the cumulative milk consumption as % of the control [%]
1,"CC(=O)N(C)C1CCN(c2ccc(NC(=O)N3CCC(c4ccc(Cl)cc4)CC3)cc2)C1 (centres unmarked) [Example 13, 4-(4-Chlorophenyl)piperidine-1-carboxylic acid {4-[3-(acetylmethylamino)-pyrrolidin-1-yl]phenyl}amide]",64
2,"CC(=O)N(C)[C@@H]1CCN(c2ccc(NC(=O)Nc3ccc(Oc4ccccc4)cc3)cc2)C1 [Example 4, (R)-N-Methyl-N-(1-{4-[3-(4-phenoxyphenyl)ureido]phenyl}pyrrolidin-3-yl)acetamide]",50
